The values that follow come from patent publication US20210299657A1, “Method for Development of Microfluidic Assay Device Prototype” (University of Manitoba, priority 2018, published 2021).

The test system of experiment [1] is MDA-MB-231 breast cancer cells. The experiment can be described thus: Radial microfluidic chemotaxis assay, MDA-MB-231 cells (migration distance). In kind it is cell-based, human. The following applies: for chemotaxis response (migration distance) to the EGF gradient after inhibitor treatment: MDA-MB-231 cells with reduced HMGA2 levels after LIN28 inhibitor, 6 h migration. From the text:
(§1) The device pattern was designed using AUTOCAD and printed on a transparent film at high resolution. The SU-8 device master was fabricated on a 3-inch silicon wafer by a two-layer photolithography (10). The first layer defines the cell docking structure that is used to align the cells to one side of the gradient channel prior to migration (FIG. 2). Its thickness should be cell specific, with it being slightly lower than the cell size but not be too low to prevent the cells from crossing, as described herein. We chose ˜2.5 μm for neutrophils and ˜7 μm for breast cancer cells. The Polydimethylsiloxane (PDMS) (Sylgard 184; Dow Corning, Midland, USA) device was fabricated using soft-lithography. Inlets (6 mm diameter), outlets (4 mm diameter), and the cell loading port (2 mm diameter) were punched. The PDMS replica was bonded to a glass slide to seal the channels after plasma treatment. The device channels were coated using rat tail collagen type I (3.8 μg/mL; Advanced BioMatrix, San Diego, USA) for one hour and then blocked by 0.4% BSA in RPMI medium for another hour before the migration experiment.
(§2) Two microliters of cell suspension were added to the cell loading port of each unit. When the cells had collected in the docking area, chemoattractant solution and migration medium were added to the corresponding inlets (FIG. 2). We used 100 nM IL-8 and 100 nM fMLP dissolved in RPMI-1640 with 0.4% BSA neutrophils. For the migration studies with the human breast cancer cells, EGF (10 ng/ml, 50 ng/ml, 100 ng/ml, 200 ng/ml) dissolved in DMEM/ F-12 plus 1% FBS served as chemoattractant.
(§3) To characterize proper gradient generation, FITC-dextran (10 kD; Sigma, Oakville, Canada) was added to the solution containing the chemoattractant and fluorescent images were captured using an inverted fluorescent microscope (Ti-U; Nikon, Mississauga, Canada). Upon adding the chemoattractant solution, the inlets were covered and connected with silicone oil (A12728-22, density=0.963 g/ml; Alfa Aesar, Tewksbury, USA) to balance the pressure difference between the two inlets (FIG. 3A). The microscope stage was enclosed by an environmental control chamber to maintain the temperature at 37° C. during the cell migration experiments. Time-lapse images (10 sec intervals for neutrophils and 3 min intervals for the breast cancer cells) recorded cell migration. The faster migration of neutrophils was recorded for 20 minutes, whereas migration of the breast cancer cells was monitored for 6 hours.
Cell migration and chemotaxis were quantified by calculating the migration distance the cells moved away from the docking site. For MDA-MB-231 experiments, trajectories of representative cells were tracked by manual tracking method using ImageJ. The migration angle ϕ is defined as the angle of the cell displacement vector in relation to the direction of the gradient and was calculated in 12 min intervals. The cosine of ϕ was used to indicate the directionality of cell migration relative to the gradient: 1 indicates cell migration perfectly along the gradient direction; −1 indicates cell migration along the opposite direction of the gradient; a value between 1 and −1 indicates the level of deviation of cell migration from the gradient direction. The cell shape was outlined using ImageJ. Each condition was repeated in at least three independent experiments. For statistical analysis, the two-sample Student's t-test was used to compare different conditions using OriginPro. P<0.05 was considered statistically significant and indicated by an asterisk.

In experiment [2] the test system is endogenous HMGA2 protein levels in MDA-MB-231 cells. The experiment can be described thus: Western blot analysis of HMGA2 protein in MDA-MB-231 cells. Format: cell-based, human. As to conditions: 72 h of treatment; for endogenous HMGA2 protein levels: 10 and 20 μM. The text has this:
(§4) Interleukin-8 (IL8) (R&D systems, Minneapolis, USA), N-Formylmethionyl-leucyl-phenylalanine (fMLP) (Sigma, Oakville, Canada) and epidermal growth factor (EGF) (Bachem, Torrance, USA) were used as the chemoattractant for neutrophils and breast cancer cells, respectively, in the radial microfluidic chip. Neutrophils were isolated from blood of healthy donors using a negative magnetic isolation kit (STEMCELL, Vancouver, Canada). The human breast cancer cell lines MDA-MB-231 and MCF-7 were obtained from ATCC and cultured in DMEM/F12 plus 5% FBS. MDA-MB-231 cells containing a pcDNA3 human full-size HMGA2 expression construct or an empty vector control, as well as HMGA2-knockout MDA-MB-231 cells transduced with a specific lentiviral CRISPR/Cas9 construct (pLV-U6g-EPCG-HMGA2, HS0000278246; Sigma, Oakville, Canada), were cultured with DMEM/F12 medium plus 5% FBS. We employed a rabbit polyclonal anti-HMGA2 antibody (Cell Signalling Technologies, Whitby, Canada) in Western blot analysis to identify MDA-MB-231 clones with homozygous deletion of HMGA2. The small molecule Lin28 inhibitor 1632 (R&D Systems, Minneapolis, USA) was used at 10 and 20 μM to down-regulate endogenous HMGA2 in MDA-MB-231 cells.
To test this hypothesis and further characterize the role of HMGA2 in chemotaxis of MDA-MB-231, we opted for a pharmacological (LIN28 inhibitor 1632) and CRISPR/Cas9 mediated HMGA2 knockout strategy (FIG. 4B-C). […] Next, we treated MDA-MB-231 with a specific CRISPR/Cas9 lentiviral construct and the homozygous loss of HMGA2 expression in MDA-MB-231 HMGA2 knockout (KO) cells was confirmed by Western blot analysis (FIG. 6C). When exposed to a 100 ng/mL EGF gradient in the radial microfluidic chemotaxis assays, we observed a marked reduction in migration distance in MDA-MB-231 KO clones when compared to parental MDA-MB-231 (FIG. 7C). […] This novel higher throughput device may be a valuable new tool to excel the search for new therapeutic drugs and small molecules that can mitigate chemotaxis in inflammatory and tumor cells. […]
(In general: A western blot detects proteins with antibodies after separation by electrophoresis.)

The subject of experiment [3] is human blood neutrophils. The experiment can be described thus: Radial microfluidic chemotaxis assay, neutrophils (migration distance). Format: cell-based. As to conditions: for neutrophil chemotaxis: 100 nM gradient, 20-minute migration experiment.
From the text: as §1
Two microliters of cell suspension were added to the cell loading port of each unit. […]
To characterize proper gradient generation, FITC-dextran (10 kD; Sigma, Oakville, Canada) was added to the solution containing the chemoattractant and fluorescent images were captured using an inverted fluorescent microscope (Ti-U; Nikon, Mississauga, Canada). […] Time-lapse images (10 sec intervals for neutrophils and 3 min intervals for the breast cancer cells) recorded cell migration. The faster migration of neutrophils was recorded for 20 minutes, whereas migration of the breast cancer cells was monitored for 6 hours.
(§5) Cell migration and chemotaxis were quantified by calculating the migration distance the cells moved away from the docking site. […] The migration angle ϕ is defined as the angle of the cell displacement vector in relation to the direction of the gradient and was calculated in 12 min intervals. […]

Experiment [4] concerns HMGA2 over-expressing and mock MDA-MB-231 stable transfectants. The experiment can be described thus: Radial microfluidic chemotaxis assay, HMGA2 over-expressing and mock MDA-MB-231 stable transfectants. Format: cell-based, human.
From the text: as §4, §2
as §3, with “The microscope stage was enclosed by an environmental control chamber to maintain the temperature at 37° C. during the cell migration experiments.” left out
as §5

With `CC(=O)N(C)c1cccc(-c2ccc3nnc(C)n3n2)c1` [LIN28 inhibitor 1632], the “chemotaxis response (migration distance) to the EGF gradient after inhibitor treatment” value in experiment [1] is reported as “markedly reduced migratory behavior”; in experiment [1] (listed as 1632) it was “markedly reduced chemotaxis”; in experiment [1] (listed as LIN28 inhibitor), “significant reduction in chemotaxis response to the EGF gradient”. Moreover, the “presence of HMGA2 protein” value in experiment [2] (20 μM) was “almost completely abolished the presence of HMGA2”. The results for the “endogenous HMGA2 protein levels” value in experiment [2] and in experiment [2] (listed as LIN28 inhibitor) were “down-regulated endogenous HMGA2 protein levels” and “verifiable reduction of endogenous HMGA2 levels”, respectively.

As to `CSCC[C@H](NC=O)C(=O)N[C@@H](CC(C)C)C(=O)N[C@@H](Cc1ccccc1)C(=O)O` [fMLP, N-Formylmethionyl-leucyl-phenylalanine], the “chemotaxis response with the fMLP gradient relative to the IL-8 gradient” value in experiment [3] (100 nM fMLP gradient vs 100 nM IL-8 gradient, 20 minutes) was “more than 3 fold”. Besides, the neutrophil chemotaxis result in experiment [3] was “stimulated neutrophil chemotaxis”.

As for “EGF: epidermal growth factor (Bachem), chemoattractant for breast cancer cells (NSDSECPLSHDGYCLHDGVCMYIEALDKYACNCVVGYIGERCQYRDLKWWELR; Epidermal growth factor; UniProt P01133 971-1023, looked up)”, the “migration of MDA-MB-231 cells in EGF gradient” value in experiment [1] (200, 100, and 50 ng/ml EGF gradient) is “optimal and comparable migration”; in experiment [1] (EGF gradient 100 ng/mL, 6 h), “actively migrated out of the docking structure towards the EGF gradient”. Also, the “directional migration of MDA-MB-231 cells in EGF gradient” value in experiment [1] (EGF 10 ng/ml gradient, compared with higher EGF concentrations) is “directional migration decreased significantly”. Moreover, in experiment [1] (gradient with input EGF concentration 10 ng/mL), the “directional migration of MDA-MB-231 cells, low input EGF gradient” value was “significantly increase directional migration”. For the same compound, in experiment [1] (uniform field of EGF 100 ng/mL, 6 h), the “migration of MDA-MB-231 cells in uniform EGF field” value is “remained stationary in the docking structure and failed to show a chemotaxis response”. For the same compound, in experiment [4] (EGF gradient 10 ng/mL vs uniform EGF field 50 ng/mL or normal medium), the “migration of transfectants at lowest EGF gradient vs uniform field or medium” value is reported as “significantly stronger migration”. For the same compound, the “migration distance of transfectants from the docking site, lowest EGF gradient” value in experiment [4] (EGF gradient 10 ng/mL, compared with the other EGF gradients) is given as “migrate the shortest distance”. In experiment [4] (EGF gradients 200, 100, 50 and 10 ng/mL, 6 h), the “migration of transfectants in EGF gradients” value was “enhanced and directional migration with all EGF gradients tested”. In addition, in experiment [4] (uniform EGF field 50 ng/mL, 6 h), the “migration of transfectants in uniform EGF field” value is listed as “such migratory behaviour was absent”.

As for “IL-8: Interleukin-8 (R&D systems), chemoattractant for neutrophils”, the neutrophil chemotaxis entry in experiment [3] is reported as “stimulated neutrophil chemotaxis”.
